The record followed here is ChEMBL document CHEMBL4602676, “Discovery and Development of 3-(6-Chloropyridine-3-yloxymethyl)-2-azabicyclo[3.1.0]hexane Hydrochloride (SUVN-911): A Novel, Potent, Selective, and Orally Active Neuronal Nicotinic Acetylcholine α4β2 Receptor Antagonist for the Treatment of Depression” (J Med Chem, 2020).

Data set [1] in a line: AUC (0 to t) in Beagle dog at 3 mg/kg, po by LC-MS/MS analysis. The class given is ADME, organism-based, Canis lupus familiaris. To be noted: in vivo.
Data set [2] is described as follows: Metabolic stability in rat liver microsomes assessed as compound metabolism incubated for 30 mins in presence of NADPH by LC-MS/MS analysis. The class given is ADME, Microsome. To be noted: read-out: Drug metabolism.
Data set [3] is described as follows: Genotoxicity in Salmonella typhimurium TA100 in presence of metabolic activation. The class given is toxicity. To be noted: salmonella enterica subsp. enterica serovar typhimurium.
The nature of data set [4]: Genotoxicity in Salmonella typhimurium TA100 in absence of metabolic activation. The class given is toxicity. Particulars: salmonella enterica subsp. enterica serovar typhimurium.
A short description of data set [5]: Toxicity in telemetered Beagle dog assessed as change in body weight up to 25 mg/kg, po. The class given is organism-based, Canis lupus familiaris. To be noted: in vivo.
A further data set concerns the target Cytochrome P450 2D6 (Homo sapiens, UniProt P10635). The experiment in a line: Inhibition of CYP2D6 in human liver microsomes using dextromethorphan as substrate incubated for 12 min in presence of NADPH by LC-MS/MS analysis. The class given is ADME.
Another data set has as its system Caco-2. The experiment in a line: Ratio of apparent permeability across basolateral to apical over apical to basolateral side in human Caco2 cells. The class given is ADME, cell-based.
Data set [6] in a line: Genotoxicity in Salmonella typhimurium TA1535 in presence of metabolic activation. The class given is toxicity. Particulars: salmonella enterica subsp. enterica serovar typhimurium.
A short description of data set [7]: Cmax in Wistar rat at 10 ml/kg, po or 2 ml/kg, iv measured upto 24 hrs by LC-MS/MS analysis. The class given is ADME, organism-based. Particulars: in vivo; call rule not given here.
For another data set, the target named is T1, Cytochrome P450 2B6 (Homo sapiens, UniProt P20813).
T1 sequence (P20813 whole entry): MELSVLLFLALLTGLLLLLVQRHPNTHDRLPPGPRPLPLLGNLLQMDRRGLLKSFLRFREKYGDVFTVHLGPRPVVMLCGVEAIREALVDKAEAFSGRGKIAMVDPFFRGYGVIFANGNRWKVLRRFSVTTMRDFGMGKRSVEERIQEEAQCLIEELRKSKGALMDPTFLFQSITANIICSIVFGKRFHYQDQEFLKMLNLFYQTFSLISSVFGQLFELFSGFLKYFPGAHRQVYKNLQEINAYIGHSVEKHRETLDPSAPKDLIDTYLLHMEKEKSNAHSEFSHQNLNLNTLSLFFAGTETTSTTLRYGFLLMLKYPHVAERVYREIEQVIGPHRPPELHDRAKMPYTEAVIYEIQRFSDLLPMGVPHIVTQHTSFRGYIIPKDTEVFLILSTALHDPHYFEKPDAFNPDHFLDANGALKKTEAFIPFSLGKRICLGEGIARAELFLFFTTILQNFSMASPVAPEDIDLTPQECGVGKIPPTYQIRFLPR
The experiment in a line: Induction of CYP2B6 (unknown origin). The class given is ADME.

The nature of data set [8]: AUC in Wistar rat at 10 ml/kg, po or 2 ml/kg, iv measured upto 24 hrs by LC-MS/MS analysis. The class given is ADME, organism-based. To be noted: in vivo.
Data set [9] relates to Rattus norvegicus. The experiment in a line: Antidepressant activity in Wistar rat assessed as reduction in immobility at 3 mg/kg, po administrated for 3 days and measured for 5 mins by forced swim test relative to control. The class given is functional. Further details: scale not given: the % may be the effect or the level left.
The nature of data set [10]: Toxicity in telemetered Beagle dog assessed as change in heart rate up to 25 mg/kg, po. The class given is organism-based, Canis lupus familiaris. To be noted: in vivo.
Data set [11] deals with T2, Organic anion transporter 3 (Homo sapiens, UniProt Q8TCC7).
T2 sequence (Q8TCC7 whole entry): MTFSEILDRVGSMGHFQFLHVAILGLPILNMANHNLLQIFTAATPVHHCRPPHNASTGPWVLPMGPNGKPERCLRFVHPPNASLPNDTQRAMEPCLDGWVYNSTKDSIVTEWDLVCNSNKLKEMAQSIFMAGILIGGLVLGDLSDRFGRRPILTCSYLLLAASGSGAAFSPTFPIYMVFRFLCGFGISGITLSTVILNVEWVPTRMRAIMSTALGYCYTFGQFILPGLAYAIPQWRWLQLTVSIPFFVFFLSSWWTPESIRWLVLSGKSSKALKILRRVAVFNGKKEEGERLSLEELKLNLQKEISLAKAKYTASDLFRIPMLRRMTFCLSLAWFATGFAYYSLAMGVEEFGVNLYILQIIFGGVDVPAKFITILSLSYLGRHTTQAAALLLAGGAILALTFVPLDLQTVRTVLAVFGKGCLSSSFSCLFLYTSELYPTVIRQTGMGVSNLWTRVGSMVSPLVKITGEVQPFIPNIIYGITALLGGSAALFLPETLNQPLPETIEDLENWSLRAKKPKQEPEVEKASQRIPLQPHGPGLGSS
The experiment in a line: Inhibition of OAT3 (unknown origin).

In data set [12] the test system is Rattus norvegicus. The experiment in a line: Antidepressant activity in Wistar rat assessed as reduction in immobility at 10 mg/kg, po administrated for 3 days and measured for 5 mins by forced swim test relative to control. The class given is functional. Set-up: scale not given: the % may be the effect or the level left.
Another data set has as its target Cytochrome P450 3A4 (Homo sapiens, UniProt P08684). The experiment in a line: Inhibition of CYP3A4 in human liver microsomes using midazolam as substrate incubated for 2 min in presence of NADPH by LC-MS/MS analysis. The class given is ADME.
Data set [13] deals with T3, Neuronal acetylcholine receptor; alpha4/beta2 (Homo sapiens, UniProt P17787+P43681). The experiment in a line: Displacement of [3H]cytisine from human alpha4beta2 nAChR expressed in CHOK1 cell membrane by microbeta scintillation counting method. The class given is cell membranes, CHO-K1.
T3 sequence (P17787 whole entry): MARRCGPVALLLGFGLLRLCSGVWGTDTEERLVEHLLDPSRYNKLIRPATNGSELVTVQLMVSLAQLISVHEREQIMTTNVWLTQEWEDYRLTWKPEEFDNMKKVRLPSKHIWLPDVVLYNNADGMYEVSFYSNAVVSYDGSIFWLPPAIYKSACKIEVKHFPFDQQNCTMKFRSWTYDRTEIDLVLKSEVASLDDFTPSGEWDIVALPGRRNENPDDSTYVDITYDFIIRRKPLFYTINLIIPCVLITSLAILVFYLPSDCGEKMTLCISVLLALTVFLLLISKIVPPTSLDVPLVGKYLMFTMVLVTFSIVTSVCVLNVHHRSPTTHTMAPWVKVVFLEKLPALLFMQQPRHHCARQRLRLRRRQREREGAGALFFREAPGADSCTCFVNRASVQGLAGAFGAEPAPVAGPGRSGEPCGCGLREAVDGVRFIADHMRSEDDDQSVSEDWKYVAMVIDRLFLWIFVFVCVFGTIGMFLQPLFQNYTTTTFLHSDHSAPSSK
T3 sequence (P43681 whole entry): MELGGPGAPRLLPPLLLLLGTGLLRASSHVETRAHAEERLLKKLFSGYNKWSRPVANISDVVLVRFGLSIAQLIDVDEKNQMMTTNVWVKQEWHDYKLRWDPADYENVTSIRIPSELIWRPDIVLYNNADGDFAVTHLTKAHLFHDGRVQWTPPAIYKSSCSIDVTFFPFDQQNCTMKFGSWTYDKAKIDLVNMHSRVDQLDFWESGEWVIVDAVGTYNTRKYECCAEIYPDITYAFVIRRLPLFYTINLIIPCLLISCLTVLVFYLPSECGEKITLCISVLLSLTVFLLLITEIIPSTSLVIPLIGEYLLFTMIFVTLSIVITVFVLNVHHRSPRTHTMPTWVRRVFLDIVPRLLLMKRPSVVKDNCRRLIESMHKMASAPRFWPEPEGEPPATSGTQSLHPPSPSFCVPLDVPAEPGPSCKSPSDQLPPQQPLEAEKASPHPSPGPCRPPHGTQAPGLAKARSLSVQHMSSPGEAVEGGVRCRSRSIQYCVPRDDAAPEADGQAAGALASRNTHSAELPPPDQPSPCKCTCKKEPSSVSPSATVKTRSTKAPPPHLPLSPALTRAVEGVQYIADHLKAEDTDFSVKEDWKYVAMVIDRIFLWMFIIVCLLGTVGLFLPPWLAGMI
In a further data set the test system is Bone marrow cell. The experiment in a line: Genotoxicity in mouse bone marrow cells assessed as non clastogenic by micronucleus assay. The class given is toxicity, cell-based.
The nature of data set [14]: Volume of distribution in Beagle dog at 1 mg/kg, iv by LC-MS/MS analysis. The class given is ADME, organism-based, Canis lupus familiaris. Particulars: in vivo.
Data set [15] concerns the target T3, Neuronal acetylcholine receptor; alpha4/beta2. The experiment in a line: Antagonist activity at alpha4beta2 nAChR (unknown origin) expressed in HEK293 cells assessed as reduction in acetylcholine-induced currents at -80 mV holding potential by whole-cell patch clamp method. The class given is cell-based.
Data set [16] deals with T4, Solute carrier family 22 member 2 (Homo sapiens, UniProt O15244).
T4 sequence (O15244 whole entry): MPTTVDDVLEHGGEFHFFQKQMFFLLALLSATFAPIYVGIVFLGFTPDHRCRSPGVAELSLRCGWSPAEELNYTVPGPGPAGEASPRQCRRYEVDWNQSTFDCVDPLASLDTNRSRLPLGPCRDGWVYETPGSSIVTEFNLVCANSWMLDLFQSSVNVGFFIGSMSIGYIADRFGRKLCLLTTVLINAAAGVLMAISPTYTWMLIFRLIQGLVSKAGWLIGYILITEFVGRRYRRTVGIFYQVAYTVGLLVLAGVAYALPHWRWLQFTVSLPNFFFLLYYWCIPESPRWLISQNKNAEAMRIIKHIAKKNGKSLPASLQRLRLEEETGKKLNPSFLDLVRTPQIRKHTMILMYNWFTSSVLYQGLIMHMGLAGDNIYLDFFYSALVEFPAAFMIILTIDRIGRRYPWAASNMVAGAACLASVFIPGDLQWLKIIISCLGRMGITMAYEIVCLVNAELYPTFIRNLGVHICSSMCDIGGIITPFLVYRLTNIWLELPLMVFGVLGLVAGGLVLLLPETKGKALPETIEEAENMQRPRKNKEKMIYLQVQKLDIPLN
The experiment in a line: Inhibition of OCT2 (unknown origin).

A short description of data set [17]: Apparent permeability in human Caco2 cells. The class given is ADME, cell-based. Particulars: caco-2.
Data set [18] can be described thus: Terminal half life in Beagle dog at 1 mg/kg, iv by LC-MS/MS analysis. The class given is ADME, organism-based, Canis lupus familiaris. To be noted: in vivo, read-out: beta t1/2 (converted).
Data set [19] in a line: Genotoxicity in Salmonella typhimurium TA98 in presence of metabolic activation. The class given is toxicity. To be noted: salmonella enterica subsp. enterica serovar typhimurium.

Cytochrome P450 2D6, sequence (P10635 whole entry): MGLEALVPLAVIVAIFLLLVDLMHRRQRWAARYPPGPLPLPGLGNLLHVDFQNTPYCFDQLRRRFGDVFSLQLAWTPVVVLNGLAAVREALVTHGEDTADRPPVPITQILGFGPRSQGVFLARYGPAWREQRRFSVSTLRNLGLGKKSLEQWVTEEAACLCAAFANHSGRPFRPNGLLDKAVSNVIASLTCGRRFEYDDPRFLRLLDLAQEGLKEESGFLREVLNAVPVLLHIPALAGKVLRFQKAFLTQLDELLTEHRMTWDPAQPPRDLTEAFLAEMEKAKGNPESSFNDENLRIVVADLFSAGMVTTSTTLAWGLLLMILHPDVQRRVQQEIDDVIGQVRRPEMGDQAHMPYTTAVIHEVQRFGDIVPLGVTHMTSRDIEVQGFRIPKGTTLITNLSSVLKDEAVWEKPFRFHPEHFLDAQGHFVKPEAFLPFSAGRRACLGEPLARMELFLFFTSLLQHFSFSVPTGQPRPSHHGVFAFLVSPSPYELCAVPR
Cytochrome P450 3A4, sequence (P08684 whole entry): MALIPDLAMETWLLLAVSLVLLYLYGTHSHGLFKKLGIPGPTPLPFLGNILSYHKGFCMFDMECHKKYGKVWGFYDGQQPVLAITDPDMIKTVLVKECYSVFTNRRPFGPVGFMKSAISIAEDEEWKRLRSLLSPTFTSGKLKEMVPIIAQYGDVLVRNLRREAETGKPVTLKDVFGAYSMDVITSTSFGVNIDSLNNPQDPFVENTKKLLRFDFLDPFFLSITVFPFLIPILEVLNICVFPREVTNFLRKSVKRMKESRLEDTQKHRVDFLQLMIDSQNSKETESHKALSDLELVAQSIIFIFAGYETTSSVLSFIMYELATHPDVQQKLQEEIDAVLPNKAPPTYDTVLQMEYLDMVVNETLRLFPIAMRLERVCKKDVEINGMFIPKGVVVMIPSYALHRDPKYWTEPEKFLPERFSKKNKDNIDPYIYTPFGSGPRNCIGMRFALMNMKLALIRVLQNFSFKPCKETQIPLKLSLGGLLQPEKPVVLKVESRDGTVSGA

With `Cl.Clc1ccc(OC[C@@H]2C[C@H]3C[C@H]3N2)cn1`, in data set [1], the AUC(0-t) turned out to be 4350 ng·h/mL. Further, the metabolised at 0.5 h in data set [2] is 32.2%. The Activity result in data set [3] is listed as “Non-Toxic”; in data set [4], “Non-Toxic”; in data set [5] it was “Non-Toxic”; in data set [6], “Non-Toxic”; on Cytochrome P450 2B6, “Not Active”; in the data set on Rattus norvegicus [9] it was 35.81%. For the same compound, the Activity result is on record as “Non-Toxic” in data set [10], 66.4% with Rattus norvegicus [12], “Non-Toxic” in the data set with Bone marrow cell and “Non-Toxic” in data set [19]. Also, the results for the IC50 (on Cytochrome P450 2D6; at Cytochrome P450 3A4; in data set [15]) were 38.1 µM, greater than 45 µM and 7.31 µM, respectively. Besides, the Ratio in the data set on Caco-2 was determined as 0.7. The concentration in data set [7] peaked (Cmax) at 1910 ng/mL. Further, the area under the curve (AUC) at 24 h in data set [8] came to 3510 ng·h/mL. Moreover, the “inhibition (INH)” value in data set [11] and in data set [16] was “Not Active” in each case. This compound displayed a Ki in data set [13] of 0.0015 µM. Moreover, in data set [14], the Vd came out at 1.3 L/kg. Further, the apparent permeability coefficient (Papp) in [17] stood at 68.8 ×10⁻⁶ cm/s. In data set [18], the half-life is 1.9 h.
